ChEMBL document CHEMBL5154908, “Design, Synthesis, and Biological Characterization of Inhaled p38α/β MAPK Inhibitors for the Treatment of Lung Inflammatory Diseases” (J Med Chem, 2022)

Experiments:
[1] = molecular target: T1, Mitogen-activated protein kinase 14 (Homo sapiens, UniProt Q16539); experiment: Displacement of SKF-86002 from human inactivated p38alpha assessed as dissociation half life incubated for 2 hrs by fluorescence based analysis
[2] = molecular target: T1, Mitogen-activated protein kinase 14; experiment: Inhibition of human recombinant full length GST-tagged p38alpha expressed in Escherichia coli preincubated for 2 hrs followed by ATP addition and measured after 1 hr by Alpha screen assay
[3] = Inhibition of LPS-stimulated TNFalpha release in human PBMC cells preincubated for 1 hr followed by LPS stimulation and measured after 18 hrs; assay type: functional, cell-based

T1 sequence (Q16539 whole entry): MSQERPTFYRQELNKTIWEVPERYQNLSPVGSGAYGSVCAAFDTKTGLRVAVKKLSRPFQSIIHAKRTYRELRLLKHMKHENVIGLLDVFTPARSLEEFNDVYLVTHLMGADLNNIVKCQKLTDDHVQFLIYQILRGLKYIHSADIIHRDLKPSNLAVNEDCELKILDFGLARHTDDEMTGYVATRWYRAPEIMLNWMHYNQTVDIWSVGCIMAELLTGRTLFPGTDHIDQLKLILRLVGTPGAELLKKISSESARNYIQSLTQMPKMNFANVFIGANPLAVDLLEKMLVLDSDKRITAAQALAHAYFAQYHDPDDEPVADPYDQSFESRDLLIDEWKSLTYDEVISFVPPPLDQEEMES

SMILES | T1/2 [1] | IC50 [2] | IC50 [3]
C[C@H]1CCCCN1c1nnc2ccc(O[C@@H]3CC[C@H](NC(=O)Nc4cc(C(C)(C)C)nn4-c4cncc(OCCN(C)C)c4)c4ccccc43)cn12 | 5 h | 0.03 nM | 1 nM
C[C@H]1CCCCN1c1nnc2ccc(O[C@@H]3CC[C@H](NC(=O)Nc4cc(C(C)(C)C)nn4-c4cnnc(OCCN(C)C)c4)c4ccccc43)cn12 | 1.1 h | 0.3 nM | 1.2 nM
C[C@@H]1CCCCN1c1nnc2ccc(O[C@@H]3CC[C@H](NC(=O)Nc4cc(C(C)(C)C)nn4-c4cccc(OCCN(C)C)c4)c4ccccc43)cn12 | 5.4 h | 0.2 nM | 1.6 nM
Cc1ccc(-n2nc(C(C)(C)C)cc2NC(=O)N[C@H]2CC[C@H](Oc3ccc4nnc(C(C)C)n4c3)CC2)cc1 | 0.09 h | 6.1 nM | 36 nM
COCCN(C)CCn1cc(-n2nc(C(C)(C)C)cc2NC(=O)N[C@H]2CC[C@@H](Oc3ccc4nnc(N5CCCC[C@@H]5C)n4c3)c3ccccc32)cn1 | > 16 h | 0.2 nM | 0.9 nM
CN1CCN(Cc2ccc(-n3nc(C(C)(C)C)cc3NC(=O)N[C@H]3CC[C@@H](Oc4ccc5nnc(N6CCCCC6)n5c4)c4ccccc43)cc2)CC1 | 1.4 h | 0.6 nM | 2.2 nM
C[C@H]1CCCCC1c1nnc2ccc(O[C@@H]3CC[C@H](NC(=O)Nc4cc(C(C)(C)C)nn4-c4cccc(OCCN5CCOCC5)c4)c4ccccc43)cn12 (some centres not stated) | > 16 h | 0.5 nM | 0.8 nM
CC(C)(C)c1cc(NC(=O)N[C@H]2CC[C@@H](Oc3ccc4nnc(N5CCCCC5)n4c3)c3ccccc32)n(-c2cccc(CN3CCCCC3)c2)n1 | 1.2 h | 1.3 nM | 1.9 nM

The remaining compounds from weak to strong by IC50 [2], led by results:

T1/2 [1] | IC50 [2] | IC50 [3] | SMILES
5.8 h | 1.1 nM | 0.9 nM | Cc1ccc(-n2nc(C(C)(C)C)cc2NC(=O)N[C@H]2CC[C@@H](Oc3ccc4nnc(N5CCOCC5)n4c3)c3ccccc32)cc1
9 h | 1 nM | 2.5 nM | Cc1ccc(-n2nc(C(C)(C)C)cc2NC(=O)N[C@H]2CC[C@@H](Oc3ccc4nnc(N5CCN(C)CC5)n4c3)c3ccccc32)cc1
> 16 h | 0.5 nM | 2.1 nM | Cc1ccc(-n2nc(C(C)(C)C)cc2NC(=O)N[C@H]2CC[C@@H](Oc3ccc4nnc(N5CCC(O)CC5)n4c3)c3ccccc32)cc1
> 16 h | 0.5 nM | 0.3 nM | Cc1ccc(-n2nc(C(C)(C)C)cc2NC(=O)N[C@H]2CC[C@@H](Oc3ccc4nnc(N5CCCC5)n4c3)c3ccccc32)cc1
> 16 h | 0.5 nM | 1.8 nM | C[C@H]1CCCCN1c1nnc2ccc(O[C@@H]3CC[C@H](NC(=O)Nc4cc(C(C)(C)C)nn4-c4cnn(CCN5CCOCC5)c4)c4ccccc43)cn12
> 16 h | 0.4 nM | 5.1 nM | C[C@H]1CCCCN1c1nnc2ccc(O[C@@H]3CC[C@H](NC(=O)Nc4cc(C(C)(C)C)nn4-c4cnn(CCN5CCC(O)CC5)c4)c4ccccc43)cn12
1.9 h | 0.4 nM | 1 nM | CC(C)c1nnc2ccc(O[C@@H]3CC[C@H](NC(=O)Nc4cc(C(C)(C)C)nn4-c4cccc(OCCO)c4)c4ccccc43)cn12
> 16 h | 0.3 nM | 0.4 nM | Cc1ccc(-n2nc(C(C)(C)C)cc2NC(=O)N[C@H]2CC[C@@H](Oc3ccc4nnc(C5CCCCC5)n4c3)c3ccccc32)cc1
9 h | 0.2 nM | 2.5 nM | CCN(C)CCn1cc(-n2nc(C(C)(C)C)cc2NC(=O)N[C@H]2CC[C@@H](Oc3ccc4nnc(N5CCCC[C@@H]5C)n4c3)c3ccccc32)cn1
> 16 h | 0.1 nM | 0.1 nM | Cc1ccc(-n2nc(C(C)(C)C)cc2NC(=O)N[C@H]2CC[C@H](Oc3ccc4nnc(C(C)C)n4c3)c3ccccc32)cc1
0.89 h | 0.05 nM | 0.7 nM | CC(C)c1nnc2ccc(O[C@@H]3CC[C@H](NC(=O)Nc4cc(C(C)(C)C)nn4-c4ccc(Cl)c(O)c4)c4ccccc43)cn12
